From PubChem BioAssay (NCI)
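48-hour exposure; five concentrations; linearly interpolated endpoints. At the GI50, growth is halved. TGI marks complete inhibition of growth.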

Experiments:
Assay in all cases: NCI tumour cell line growth inhibition, 48 h
[1] = test system: KM12 colon
[2] = test system: MOLT-4 leukemia
[3] = test system: BT-549 breast
[4] = test system: HL-60(TB) leukemia
[5] = test system: SF-268 CNS
[6] = test system: UACC-62 melanoma
[7] = test system: RPMI-8226 leukemia
[8] = test system: SK-MEL-28 melanoma
[9] = test system: MDA-MB-231 breast
[10] = test system: SK-OV-3 ovarian
[11] = test system: SF-295 CNS
[12] = test system: OVCAR-4 ovarian
[13] = test system: MDA-MB-435
[14] = test system: HT29 colon
[15] = test system: UO-31 renal
[16] = test system: OVCAR-3 ovarian
[17] = test system: RXF 393 renal
[18] = test system: LOX IMVI melanoma
[19] = test system: 786-0 renal
[20] = test system: A498 renal
[21] = test system: SNB-75 CNS
[22] = test system: NCI-H23 lung
[23] = test system: HOP-62 NSCLC
[24] = test system: PC-3 prostate
[25] = test system: T-47D breast
[26] = test system: SNB-19 CNS
[27] = test system: MCF7 breast
[28] = test system: EKVX NSCLC
[29] = test system: SN12C renal
[30] = test system: OVCAR-5 ovarian
[31] = test system: A549 NSCLC
[32] = test system: ACHN renal
[33] = test system: U251 CNS
[34] = test system: HOP-92 NSCLC
[35] = test system: TK-10 renal
[36] = test system: SK-MEL-5 melanoma
[37] = test system: UACC-257 melanoma
[38] = test system: DU-145 prostate
[39] = test system: HCC-2998 colon
[40] = test system: M14 melanoma
[41] = test system: IGROV1 ovarian
[42] = test system: K-562 leukemia
[43] = test system: HCT-116 colon
[44] = test system: NCI-H460 lung
[45] = test system: CCRF-CEM leukemia
[46] = test system: CAKI-1 renal
[47] = test system: SW-620 colon
[48] = test system: SR leukemia
[49] = test system: HCT-15 colon
[50] = test system: SK-MEL-2 melanoma
[51] = test system: MALME-3M melanoma
[52] = test system: MDA-MB-468 breast
[53] = test system: HS 578T breast
[54] = test system: NCI-H226 lung
[55] = test system: COLO 205 colon
[56] = test system: SF-539 CNS
[57] = test system: OVCAR-8 ovarian
[58] = test system: NCI-H522 lung

O=C(c1ccc(Cl)cc1)C1[C@H](c2ccccc2Br)[C@@H](c2ccccc2)NC12C(=O)Nc1ccc(Cl)cc12 (stereo partly specified)
GI50 [1]: 11.5 µM | TGI [1]: 25.2 µM | GI50 [2]: 16 µM | TGI [2]: 52.8 µM | GI50 [3]: 7.87 µM | TGI [3]: 15.7 µM | GI50 [4]: 13.2 µM | TGI [4]: 36.7 µM | GI50 [5]: 10.8 µM | TGI [5]: 25.4 µM | GI50 [6]: 8.63 µM | TGI [6]: 16 µM | GI50 [7]: 15.9 µM | TGI [7]: 48.8 µM | GI50 [8]: 8.66 µM | TGI [8]: 16 µM | GI50 [9]: 8.98 µM | TGI [9]: 16.5 µM | GI50 [10]: 12.4 µM | TGI [10]: 34.4 µM | GI50 [11]: 9.14 µM | TGI [11]: 18.9 µM | GI50 [12]: 11.8 µM | TGI [12]: 28.5 µM | GI50 [13]: 10.4 µM | TGI [13]: 20.7 µM | GI50 [14]: 9.35 µM | TGI [14]: 18.5 µM | GI50 [15]: 8.01 µM | TGI [15]: 15.1 µM | GI50 [16]: 10.6 µM | TGI [16]: 22.7 µM | GI50 [17]: 8.4 µM | TGI [17]: 16 µM | GI50 [18]: 9.69 µM | TGI [18]: 19 µM | GI50 [19]: 9.38 µM | TGI [19]: 18.8 µM | GI50 [20]: 9.4 µM | TGI [20]: 19.3 µM | GI50 [21]: 8.31 µM | TGI [21]: 26.9 µM | GI50 [22]: 10.1 µM | TGI [22]: 19.4 µM | GI50 [23]: 8.65 µM | TGI [23]: 16.4 µM | GI50 [24]: 9.87 µM | TGI [24]: 20.1 µM | GI50 [25]: 9.06 µM | TGI [25]: 18.2 µM | GI50 [26]: 10.3 µM | TGI [26]: 23.6 µM | GI50 [27]: 11.6 µM | TGI [27]: 27.9 µM | GI50 [28]: 10.6 µM | TGI [28]: 26 µM | GI50 [29]: 9.05 µM | TGI [29]: 16.4 µM | GI50 [30]: 8.61 µM | TGI [30]: 16 µM | GI50 [31]: 9.83 µM | TGI [31]: 20.2 µM | GI50 [32]: 9.94 µM | TGI [32]: 18.9 µM | GI50 [33]: 9.17 µM | TGI [33]: 16.8 µM | GI50 [34]: 8.37 µM | TGI [34]: 16.3 µM | GI50 [35]: 8.71 µM | TGI [35]: 17 µM | GI50 [36]: 9.44 µM | TGI [36]: 16.9 µM | GI50 [37]: 8.88 µM | TGI [37]: 16.7 µM | GI50 [38]: 11.1 µM | TGI [38]: 22.4 µM | GI50 [39]: 9.28 µM | TGI [39]: 17.4 µM | GI50 [40]: 9.65 µM | TGI [40]: 18.3 µM | GI50 [41]: 9.73 µM | TGI [41]: 19.1 µM | GI50 [42]: 18.5 µM | TGI [42]: 52.8 µM | GI50 [43]: 9 µM | TGI [43]: 17.5 µM | GI50 [44]: 9.54 µM | TGI [44]: 18.9 µM | GI50 [45]: 13.6 µM | TGI [45]: 35.1 µM | GI50 [46]: 8.96 µM | TGI [46]: 17.4 µM | GI50 [47]: 9.58 µM | TGI [47]: 19.2 µM | GI50 [48]: 13.5 µM | TGI [48]: 32 µM | GI50 [49]: 10.2 µM | TGI [49]: 20 µM | GI50 [50]: 9.22 µM | TGI [50]: 16.9 µM | GI50 [51]: 8.67 µM | TGI [51]: 16 µM | GI50 [52]: 9.09 µM | TGI [52]: 17.3 µM | GI50 [53]: 11 µM | TGI [53]: 27.1 µM | GI50 [54]: 8.69 µM | TGI [54]: 17.2 µM | GI50 [55]: 9.34 µM | TGI [55]: 17.3 µM | GI50 [56]: 9.17 µM | TGI [56]: 17 µM | GI50 [57]: 9.6 µM | TGI [57]: 18 µM | GI50 [58]: 8.67 µM | TGI [58]: 16.6 µM
